{"source": "paper PMC10492782", "about": "“Exploiting the aggregation propensity of beta-lactamases to design inhibitors that induce enzyme misfolding” (Nature Communications, 2023)", "key": {"TEM-1": {"target": "TEM-1 (Escherichia coli, UniProt P62593)", "sequence (P62593 24-286 limits assumed)": "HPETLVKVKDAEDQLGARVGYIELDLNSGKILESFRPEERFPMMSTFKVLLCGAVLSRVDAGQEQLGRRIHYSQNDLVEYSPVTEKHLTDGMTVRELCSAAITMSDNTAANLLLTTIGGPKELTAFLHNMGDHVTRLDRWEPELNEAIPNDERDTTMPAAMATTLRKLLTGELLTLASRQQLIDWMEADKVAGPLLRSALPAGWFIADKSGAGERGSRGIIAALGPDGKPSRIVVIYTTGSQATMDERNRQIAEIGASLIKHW", "type": "biochemical, E. coli", "design": "His-tag (N); TEV cleavage site (N); made in house; host or cells: E. coli BL21 (DE3)", "conditions": "static light scattering during temperature ramp, inhibitor titration", "source_text": "Then, we performed a thermal denaturation whilst simultaneously monitoring the intrinsic fluorescence as a measure of the folding status of the molecule (Fig. 1D and Supplementary Fig. 2D) and the static light scattering as a measure of aggregation (Fig. 1E and Supplementary Fig. 2E).\nD Heat denaturation of TEM-1 monitored by intrinsic fluorescence plotted as the BaryCentric Mean (BCM) of the fluorescence emission spectrum in the presence (red) and absence (blue) of tazobactam. […] E Temperature-dependent evolution of the Right-Angle Light Scattering (RALS) intensity measured simultaneously with the data in D to monitor protein aggregation. […] F Same data as in E, but showing a dose-titration of the beta-lactamase inhibitor tazobactam."}, "E. coli NDM-5b": {"tested_on": "E. coli NDM-5b", "conditions": "for FICi values: E. coli NDM-5b; for synergy with penicillin (in words): checkerboard, strain containing NDM5b", "excerpt": "(§1) As we wondered about the generality of our peptide design approach, we set out to design a peptide to inactivate a structurally unrelated beta-lactamase. To this end, we turned to the Ambler class B beta-lactamase NDM-1 that confers resistance to many beta-lactam antibiotics, including carbapenems, and strains carrying this enzyme were soon dubbed ‘superbugs’ that are only partially sensitive to colistin and tigecycline. This enzyme was first isolated from a patient in 2008[41]. By 2010 it could be detected in clinical isolates throughout the UK and India[42], and by 2015, in over 70 countries worldwide.\n(§2) For the analysis of synergy between the peptides and other antibiotics, a checkerboard assay was performed. Based on the MICs of the selected peptides, a checkerboard assay was designed to define their FICIs (Fractional Inhibitory Concentration Index) in combinations against different clinical isolates[53],[54]. Briefly, a total volume of 100 μL of Mueller–Hinton broth was distributed into each well of the 96-well plates. The first compound (peptide) of the combination was serially diluted vertically (128, 64, 32, 16, 8, 4, 2, 0 μg/mL) while the other drug (Beta-lactam or Kanamycin) was diluted horizontally in a 96-well plate (from 3200 to 3 μg/ mL). The total volume of each microtiter well was inoculated with 100 μL of MHB containing 1 × 10^6 CFU/mL bacteria. The plates were incubated at 37 °C for 24 h under aerobic conditions without shaking. Calculation of the FICI is used to analyze the results of the checkerboard assay by estimating the degree of synergistic effect. FICI is calculated as the sum of the individual fractional inhibitory concentrations (FICs) for each drug (where MIC A and MIC B denote the MIC of each drug alone, and MIC AA+B and MIC BA+B denote the concentrations of A and B in the drug combination). FICI = (MIC AA+B/MIC A) + (MIC BA+B/MIC B). With FICI ≤ 0.5, the combination of antibiotics is considered as a synergistic effect, 0.5 < FICI ≤ 1 indicates additivity, FICI > 1 indicates indifference."}, "E. coli NDM-5a": {"tested_on": "E. coli NDM-5a", "conditions": "for FICi values: E. coli NDM-5a; for synergy with penicillin (in words): checkerboard, strain containing NDM5a", "excerpt": "as §1, §2"}, "E. coli SHV11": {"tested_on": "E. coli SHV11", "test": "Checkerboard assay (FICI)", "type": "cell-based, Escherichia coli", "conditions": "strain containing SHV-11, FICI below 0.5 = synergy", "procedure": "(§3) To quantify the synergy between these four peptides and penicillin G, we performed a so-called checkerboard assay, which allows us to compare the activity of two test compounds co-incubated (here peptide and a beta-lactam antibiotic), to their individual activities in isolation. […] We evaluated the synergy of the peptides with penicillin G in clinical E. coli isolates carrying the TEM (Fig. 3D) or SHV enzymes (Fig. 3E). […] The list of strains included some that harbored only TEM or SHV, but others contained additional Ambler Class A (CTX-M or OXA) or Class B (VIM and NDM) beta-lactamases.\nFor the analysis of synergy between the peptides and other antibiotics, a checkerboard assay was performed. Based on the MICs of the selected peptides, a checkerboard assay was designed to define their FICIs (Fractional Inhibitory Concentration Index) in combinations against different clinical isolates[53],[54]. Briefly, a total volume of 100 μL of Mueller–Hinton broth was distributed into each well of the 96-well plates. […] FICI is calculated as the sum of the individual fractional inhibitory concentrations (FICs) for each drug (where MIC A and MIC B denote the MIC of each drug alone, and MIC AA+B and MIC BA+B denote the concentrations of A and B in the drug combination). […]"}, "E. coli strain UZ_TEM104 [1]": {"tested_on": "E. coli strain UZ_TEM104", "conditions": "broth microdilution, MHB, overnight 37 °C, peptide alone", "excerpt": "Pept-Ins consist of a tandem repeat of the APR, each instance flanked by charged amino acids for solubility and separated by a short peptide linker[20],[21],[24] (Fig. 3A). Previous work has shown that good bacterial uptake can be achieved using one positively charged arginine residue on the N-terminal side of each APR in the tandem and two arginine residues on the C-terminal side[20],[21]. […] As before, we employed a single Pro residue as a linker between the APRs and focused on an APR length of seven, extending shorter APRs to this length by incorporating flanking amino acids unless they were obvious aggregation breakers (Arg, Lys, Asp, Glu or Pro, see Table 1).\nDetermination of MIC values was performed using the broth microdilution method according to the EUCAST guideline, which was performed in 96-well polystyrene flat-bottom microtiter plates (BD Biosciences). Briefly, a single colony was inoculated into 5 mL Difco™ Mueller–Hinton Broth (BD Biosciences Ref 275730) and grown to the end-exponential growth phase in a shaking incubator at 37 °C. Cultures were subsequently diluted to a MacFarland (0.5 optical density) to reach 10^6 CFU/mL in fresh MHB medium. 50 µl of different concentrations of peptides ranging from 128 to 2 µg/mL were serially diluted to the sterile 96-well plate in MHB. 50 µL of the diluted bacteria in MHB were next pipetted into 96-well plates to reach the final volume of 100 µL. The bacteria grown with the maximum concentration of carrier and medium were considered positive and negative controls, respectively. The plates were statically incubated overnight at 37 °C to allow bacterial growth. OD was measured at 590 nm using a multipurpose ultraviolet–visible plate reader, and the absorbance of the bacterial growth was measured using an absorbance reader."}, "E. coli TEM104": {"tested_on": "E. coli TEM104", "procedure": "as §3, §2"}, "E. coli strain UZ_TEM104 [2]": {"tested_on": "E. coli strain UZ_TEM104", "test": "microbe, parasite or virus in culture", "type": "cell-based, Escherichia coli"}, "[3]": {"target": "the molecule itself", "test": "Thioflavin-T and pFTAA fluorescence kinetics + DLS + transmission electron microscopy; 50 μM TEM3.2 with polyphosphate (PolyP); electron microscopy after 24 h incubation at RT; the peptide is called soluble in buffer alone"}}, "note": "Read-outs that look alike come from different tables or passages of the source."}
{"molecule": "O=C(O)[C@H]1/C(=C/CO)O[C@@H]2CC(=O)N21", "note": "[clavulanate]", "values": [{"measurement": "effect on aggregation of TEM-1, dose-response (in words)", "setting": "TEM-1", "value": "reduce the aggregation of the enzyme in a dose-responsive manner"}]}
{"molecule": "Ac-RSVIIWSLGRRPRSVIIWSLGRR-NH2 [BGAL]", "values": [{"measurement": "FICi values", "setting": "E. coli NDM-5b; Replicate1", "value": 2}, {"measurement": "FICi values", "setting": "E. coli NDM-5b; Replicate2", "value": 1}, {"measurement": "FICi values", "setting": "E. coli NDM-5b; Replicate3", "value": 2}, {"measurement": "FICi values", "setting": "E. coli NDM-5b; Replicate4", "value": 2}, {"measurement": "FICi values", "setting": "E. coli NDM-5b; Replicate5", "value": 1.5}, {"measurement": "synergy with penicillin (in words)", "setting": "E. coli NDM-5b", "value": "neither showed synergy on any of the strains used"}, {"measurement": "FICi values", "setting": "E. coli NDM-5a; Replicate1", "value": 2}, {"measurement": "FICi values", "setting": "E. coli NDM-5a; Replicate2", "value": 2}, {"measurement": "FICi values", "setting": "E. coli NDM-5a; Replicate3", "value": 2}, {"measurement": "FICi values", "setting": "E. coli NDM-5a; Replicate4", "value": 1.5}, {"measurement": "FICi values", "setting": "E. coli NDM-5a; Replicate5", "value": 2}, {"measurement": "synergy with penicillin (in words)", "setting": "E. coli NDM-5a", "value": "neither showed synergy on any of the strains used"}, {"measurement": "synergy with penicillin G (in words)", "setting": "E. coli SHV11", "value": "no synergy with penicillin G"}, {"measurement": "MIC peptide", "setting": "E. coli strain UZ_TEM104 [1]", "value": "> 0.1", "unit": "mg/mL"}, {"measurement": "FICi values", "setting": "E. coli TEM104; TEM104, Replicate1", "value": 1}, {"measurement": "FICi values", "setting": "E. coli TEM104; TEM104, Replicate2", "value": 1}, {"measurement": "FICi values", "setting": "E. coli TEM104; TEM104, Replicate3", "value": 1}, {"measurement": "FICi values", "setting": "E. coli TEM104; TEM104, Replicate4", "value": 1}, {"measurement": "FICi values", "setting": "E. coli TEM104; TEM104, Replicate5", "value": 1.5}]}
{"molecule": "Ac-RGIIAALGRRPRGIIAALGRR-NH2 [TEM6.0]", "values": [{"measurement": "MIC penicillin", "setting": "E. coli strain UZ_TEM104 [2]; E. coli UZ_TEM104, concentration of additive 50 (mg/mL [sic])", "value": 1600, "unit": "mg/mL"}, {"measurement": "MIC penicillin", "setting": "E. coli strain UZ_TEM104 [2]; in the presence of additive (peptide or tazobactam) at fixed 50 μg/mL", "value": 1.6, "unit": "mg/mL"}, {"measurement": "MIC peptide", "setting": "E. coli strain UZ_TEM104 [1]", "value": ">0.1", "unit": "mg/mL"}]}
{"molecule": "Ac-RTAQILNWRRPRTAQILNWRR-NH2 [NDM1-1]", "values": [{"measurement": "synergy with penicillin (in words)", "setting": "E. coli NDM-5b", "value": "show synergy"}, {"measurement": "FICi values", "setting": "E. coli NDM-5a; Replicate1", "value": 0.37}, {"measurement": "FICi values", "setting": "E. coli NDM-5a; Replicate2", "value": 0.38}, {"measurement": "FICi values", "setting": "E. coli NDM-5a; Replicate3", "value": 0.21}, {"measurement": "FICi values", "setting": "E. coli NDM-5a; Replicate4", "value": 0.195}, {"measurement": "FICi values", "setting": "E. coli NDM-5a; Replicate5", "value": 0.25}, {"measurement": "synergy with penicillin (in words)", "setting": "E. coli NDM-5a", "value": "show synergy"}, {"measurement": "FICi values", "setting": "E. coli TEM104; TEM104, Replicate1", "value": 0.5}, {"measurement": "FICi values", "setting": "E. coli TEM104; TEM104, Replicate2", "value": 0.78}, {"measurement": "FICi values", "setting": "E. coli TEM104; TEM104, Replicate3", "value": 0.72}, {"measurement": "FICi values", "setting": "E. coli TEM104; TEM104, Replicate5", "value": 0.75}]}
{"molecule": "Ac-RLTAFLHNRRPRLTAFLRQRR-NH2 (designed tandem of the TEM version (LTAFLHN) and the SHV version (LTAFLRQ) of APR 3, each flanked by Arg, with a Pro linker; also called peptide TEM3.2; source: synthetic peptide (Genscript, >90% purity; also in-house solid-phase synthesis))", "note": "[Pept-In TEM3.2]", "values": [{"measurement": "binding result", "setting": "[3]", "value": "binds"}]}
